Results from patent publication US12544463B2, “Deuterium substituted positron emission tomography (PET) imaging agents and their pharmacological application” (Five Eleven Pharma Inc., priority 2017, dated 2026).

Biological target: T1, serotonin transporters (SERT) (Rattus norvegicus, UniProt P31652)
T1 construct: expressed in transfected cells; host or cells: LLC-PK1 (LLC-SERT)
Assay: In vitro binding assay, LLC-SERT membrane homogenates, [^125I]IDAM
Conditions: 0.2 nM [^125I]IDAM, LLC-SERT membranes; read-out: Ki (SERT binding affinity) (converted)
Procedure: The membrane homogenates of serotonin transporters (LLC-SERT, which were expressed in a common parental cell line LLC-PK1) were prepared and used for the binding assays. Competitive binding assays were performed in a final volume of 0.25 mL. […] Nonspecific binding was defined with 10 μM citalopram. Incubation was carried out for 60 min at room temperature and the bound ligand was collected on glass fiber filters presoaked with 1% polyethylenimine (SIGMA, St. Louis, MO) and counted in a gamma counter (Wizard^2, Perkin Elmer).

T1 sequence (P31652 whole entry): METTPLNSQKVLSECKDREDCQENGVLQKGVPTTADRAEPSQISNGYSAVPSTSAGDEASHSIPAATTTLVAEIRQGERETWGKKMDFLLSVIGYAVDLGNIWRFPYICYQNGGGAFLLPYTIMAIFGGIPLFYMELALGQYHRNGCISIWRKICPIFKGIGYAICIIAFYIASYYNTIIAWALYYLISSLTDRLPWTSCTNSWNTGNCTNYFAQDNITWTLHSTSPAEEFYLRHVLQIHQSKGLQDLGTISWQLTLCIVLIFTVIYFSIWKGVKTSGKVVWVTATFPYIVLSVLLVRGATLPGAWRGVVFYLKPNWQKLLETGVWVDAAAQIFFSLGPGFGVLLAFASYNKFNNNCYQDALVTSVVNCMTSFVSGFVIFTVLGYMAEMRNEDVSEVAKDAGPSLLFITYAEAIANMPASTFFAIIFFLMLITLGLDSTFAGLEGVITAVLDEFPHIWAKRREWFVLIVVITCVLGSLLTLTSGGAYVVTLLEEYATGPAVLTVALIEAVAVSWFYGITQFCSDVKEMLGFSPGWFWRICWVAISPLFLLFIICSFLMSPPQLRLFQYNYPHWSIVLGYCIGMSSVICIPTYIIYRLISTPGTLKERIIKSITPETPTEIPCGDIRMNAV

| SMILES | Ki [nM] |
| --- | --- |
| CN(C)Cc1cc(OCCCF)ccc1Sc1ccc(F)cc1N | 0.022 ± 0.016 |
| [2H]C([2H])([2H])N(Cc1cc(OCCCF)ccc1Sc1ccccc1N)C([2H])([2H])[2H] (single isomer, unassigned) [III-2] | 0.032 ± 0.013 |
| [2H]C([2H])([2H])N(Cc1cc(OC([2H])([2H])C([2H])([2H])C([2H])([2H])F)ccc1Sc1ccccc1N)C([2H])([2H])[2H] (single isomer, unassigned) [III-3 (FPBM- D12)] | 0.086 ± 0.029 |
| [2H]C([2H])(F)C([2H])([2H])C([2H])([2H])Oc1ccc(Sc2ccccc2N)c(CN(C)C)c1 (single isomer, unassigned) [III-4-2] | 0.14 ± 0.06 |
| CN(C)Cc1cc(OCCCF)ccc1Sc1ccccc1N [III-1 (FPBM), reference compound] | 0.052 ± 0.007 |
| CN(C)Cc1cc(O)ccc1Sc1ccccc1N [III-1-1] | 1.21 ± 0.15 |
| [2H]C([2H])([2H])N(Cc1cc(O)ccc1Sc1ccccc1N)C([2H])([2H])[2H] [III-2-4] | 2.02 ± 0.54 |
| CN(C)Cc1cc(O)ccc1Sc1ccc(Cl)cc1N [III-4-17] | 0.03 |
| CN(C)Cc1cc(O)ccc1Sc1ccc(Br)cc1N [III-4-18] | 0.02 |
| CN(C)Cc1cc(O)ccc1Sc1ccc(F)cc1N [III-4-19] | 0.22 |
